Assay results as given in patent US20090105136A1, “NPY Y2 Agonist for Use as Therapeutic Agent for Disease Accompanied by Diarrhea” (priority 2005, published 2009).

Tested on: mice (C57BL/6)
Assay: Motility of stomach and small intestine (charcoal transit, GI motility)
Assay type: in vivo
Conditions: 0.3 mg/kg or 3 mg/kg intraperitoneal; 30 minutes after oral charcoal; vs vehicle control mice; FIG. 1
Method: At the same time, control mice (vehicle) to which only a vehicle was administered were prepared, and the same test was carried out using these mice. The motility of stomach and small intestine was measured as follows. That is, charcoal powder was suspended in a 0.5% methyl cellulose solution and the resulting suspension was orally administered to the mice. After 30 minutes, the distance that the charcoal entering into the stomach traveled in the intestinal tract was measured by dissection. At the same time, the total length of the small intestine from the pyloric portion of stomach to the beginning of the cecum was also measured, and the ratio (%) of the distance that the charcoal traveled to the total length of the small intestine was plotted in a graph as a GI (gastrointestinal) motility.

Substance: neuropeptide Y [NPY]
- GI (gastrointestinal) motility: ratio of distance the charcoal traveled to total length of small intestine: lower than that of the control mice
